Laboratory results: ChEMBL document CHEMBL1201862, “PubChem BioAssay data set” (2004)
Where “and” joins values, the source holds several entries; their conditions need not be identical. Equal values may be shown once.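 Method: 48-hour compound exposure of cells in 96-well plates, five concentrations, linear interpolation of endpoints. At the GI50, growth is halved.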 Calls of active or inactive are those of the source. Cut-off read from the data, not from the text of the source: active = GI50 up to about 1.1 µM and inactive = higher.

Assays:
Assay in all cases: NCI-60 cell line screen, 48 h
CAKI-1 = tested on: CAKI-1
MOLT-4 = tested on: MOLT-4
M14 = tested on: M14
MDA-MB-435 = tested on: MDA-MB-435
SF-268 = tested on: SF-268
MDA-N = tested on: MDA-N
UACC-257 = tested on: UACC-257
COLO 205 = tested on: COLO 205
SN12C = tested on: SN12C
U-251 = tested on: U-251
NCI-H460 = tested on: NCI-H460
A549 = tested on: A549
786-0 = tested on: 786-0
ACHN = tested on: ACHN
HT-29 = tested on: HT-29
SF-295 = tested on: SF-295
HL-60 = tested on: HL-60
RPMI-8226 = tested on: RPMI-8226
HCC 2998 = tested on: HCC 2998

SMILES	GI50 (CAKI-1)	GI50 (MOLT-4)	GI50 (M14)	GI50 (MDA-MB-435)	GI50 (SF-268)	GI50 (MDA-N)	GI50 (UACC-257)	GI50 (COLO 205)	GI50 (SN12C)	GI50 (U-251)	GI50 (NCI-H460)	GI50 (A549)	GI50 (786-0)	GI50 (ACHN)	GI50 (HT-29)	GI50 (SF-295)	GI50 (HL-60)	GI50 (RPMI-8226)	GI50 (HCC 2998)
CO[P@@]1(=O)O[C@@H](c2ccccc2)[C@H](O)[C@]1(O)c1ccccc1	> 100 µM (inactive)	> 100 µM (inactive)	> 100 µM (inactive)	> 100 µM (inactive)	> 100 µM (inactive)	> 100 µM (inactive)	> 100 µM (inactive)	> 100 µM (inactive)	> 100 µM (inactive)	> 100 µM (inactive)	> 100 µM (inactive)	> 100 µM (inactive)	> 100 µM (inactive)	> 100 µM (inactive)	34 µM (inactive)	> 100 µM (inactive)	> 100 µM (inactive)	> 100 µM (inactive)	
CN1CCN2CCN(C)CCN(CC1)CC2	> 100 µM (inactive)	> 100 µM (inactive)	> 100 µM (inactive)	> 100 µM (inactive)	> 100 µM (inactive)	> 100 µM (inactive)	> 100 µM (inactive)	> 100 µM (inactive)	> 100 µM (inactive)	> 100 µM (inactive)	> 100 µM (inactive)	> 100 µM (inactive)	> 100 µM (inactive)	> 100 µM (inactive)	> 100 µM (inactive)	> 100 µM (inactive)	> 100 µM (inactive)	> 100 µM (inactive)	
Cc1ccc(C(C)C)c(OCC(=O)N/N=C/c2c[nH]c3ccc(Br)cc23)c1	2.55 µM (inactive)	3.3 µM (inactive)	1.98 µM (inactive)	0.904 µM (active)	7.85 µM (inactive)	0.923 µM (active)	2.87 µM (inactive)	1.69 µM (inactive)	3.27 µM (inactive)	3.11 µM (inactive)	2.17 µM (inactive)	3.1 µM (inactive)	3.42 µM (inactive)	4.85 µM (inactive)	2.11 µM (inactive)	2.45 µM (inactive)	2.37 µM (inactive)	2.47 µM (inactive)	
Cc1ccc(/N=N/c2c(O)c3ccccc3[nH]c2=O)c(S(=O)(=O)N(C)C)c1	> 100 µM (inactive)		> 100 µM (inactive)	> 100 µM (inactive)	> 100 µM (inactive)	> 100 µM (inactive)	> 100 µM (inactive)	> 100 µM (inactive)	> 100 µM (inactive)	> 100 µM (inactive)	> 100 µM (inactive)	> 100 µM (inactive)	> 100 µM (inactive)	> 100 µM (inactive)	> 100 µM (inactive)	> 100 µM (inactive)	> 100 µM (inactive)	> 100 µM (inactive)	
N#CC(c1ccccc1)N(CCCCCCN(C(=O)c1ccccc1)C(C#N)c1ccccc1)C(=O)c1ccccc1 (stereo unspecified)	32.1 µM (inactive)	34.4 µM (inactive)	41.2 µM (inactive)	32.8 µM (inactive)	40.4 µM (inactive)	45.1 µM (inactive)	22.8 µM (inactive)	18.1 µM (inactive)	44.9 µM (inactive)	52.6 µM (inactive)	27.6 µM (inactive)	40.7 µM (inactive)	33.7 µM (inactive)	38.4 µM (inactive)	21.8 µM (inactive)	27.9 µM (inactive)	32.3 µM (inactive)		17.1 µM (inactive)
OC1(c2ccc(Cl)cc2)C(N2CCCC2)c2ccccc2C2=NCCN21 (stereo unspecified)	26.5 µM (inactive)	16 µM (inactive)	15.8 µM (inactive)	25.6 µM (inactive)	47.5 µM (inactive)	17.8 µM (inactive)	20.1 µM (inactive)	11.5 µM (inactive)	30.7 µM (inactive)	37.4 µM (inactive)	24.2 µM (inactive)	39.9 µM (inactive)	35.1 µM (inactive)	30.3 µM (inactive)	7.13 µM (inactive)	13.6 µM (inactive)	20.7 µM (inactive)	13 µM (inactive)	
CC1OC(OC2C(OC(=O)[C@]34CCC(C)(C)C[C@H]3C3=CC[C@@H]5[C@@]6(C)CC[C@H](OC7OC(C(=O)O)C(O)C(O)C7O)C(C)(C)[C@@H]6CC[C@@]5(C)[C@]3(C)CC4)OCC(O)C2O)C(O)C(O)C1OC1OCC(O)C(O)C1O (stereo partly specified)	30 µM (inactive) and 40.4 µM (inactive)		17.5 µM (inactive) and 19.2 µM (inactive)	18.3 µM (inactive) and 18.9 µM (inactive)	> 100 µM (inactive) and 53.2 µM (inactive)	17.9 µM (inactive) and 18.2 µM (inactive)	45 µM (inactive) and 29.8 µM (inactive)	16.7 µM (inactive) and 17.3 µM (inactive)	22.1 µM (inactive) and 19.4 µM (inactive)	39.3 µM (inactive) and 75.2 µM (inactive)	> 100 µM (inactive)	35.2 µM (inactive) and 30.6 µM (inactive)	49.3 µM (inactive) and 65.5 µM (inactive)		15.4 µM (inactive) and 28.2 µM (inactive)		21.8 µM (inactive)		18.7 µM (inactive) and 19.2 µM (inactive)
O=C1OCC(O)=C1C(c1ccc(Cl)cc1)c1cc2c(cc1O)OCO2 (stereo unspecified)	> 100 µM (inactive)	> 100 µM (inactive)	> 100 µM (inactive)	> 100 µM (inactive)	> 100 µM (inactive)	> 100 µM (inactive)		> 100 µM (inactive)	> 100 µM (inactive)		> 100 µM (inactive)	> 100 µM (inactive)	> 100 µM (inactive)	> 100 µM (inactive)	> 100 µM (inactive)		> 100 µM (inactive)		> 100 µM (inactive)
CC12CCC(CC(=O)/C1=C(/Br)I)C2(C)C (stereo unspecified)	16.9 µM (inactive)	7.18 µM (inactive)	14.4 µM (inactive)	13.7 µM (inactive)	14.6 µM (inactive)	12.2 µM (inactive)	16.2 µM (inactive)	17.2 µM (inactive)	15.8 µM (inactive)		> 100 µM (inactive)	14.6 µM (inactive)	16.1 µM (inactive)	18.2 µM (inactive)	11.4 µM (inactive)	0.31 µM (active)	3.43 µM (inactive)	6.25 µM (inactive)	
O=C(NCCC1([N+](=O)[O-])CCN(C(=O)c2ccccc2)CC1)c1ccccc1	42.3 µM (inactive)	> 100 µM (inactive)	> 100 µM (inactive)	26.7 µM (inactive)	> 100 µM (inactive)	47.1 µM (inactive)	24.7 µM (inactive)	53.7 µM (inactive)	> 100 µM (inactive)	> 10 µM (inactive)	35.3 µM (inactive)	> 100 µM (inactive)	> 100 µM (inactive)	> 100 µM (inactive)	45.6 µM (inactive)	> 100 µM (inactive)	> 100 µM (inactive)	58.7 µM (inactive)	
Cc1ccc(S(=O)(=O)NC(=O)Nc2cc(Cl)c(S(N)(=O)=O)cc2S(N)(=O)=O)cc1	> 100 µM (inactive)	> 100 µM (inactive)	> 100 µM (inactive)	> 100 µM (inactive)	> 100 µM (inactive)	> 100 µM (inactive)	> 100 µM (inactive)	> 100 µM (inactive)	> 100 µM (inactive)	> 100 µM (inactive)		> 100 µM (inactive)	> 100 µM (inactive)		> 100 µM (inactive)	> 100 µM (inactive)	> 100 µM (inactive)	> 100 µM (inactive)	
CCOC(=O)c1cc2c3c(c(C(C)=O)c(O)c2[nH]1)N(CC(C)CC)CC3 (stereo unspecified)	64.9 µM (inactive)	26.3 µM (inactive)		44.3 µM (inactive)	35 µM (inactive)	35.7 µM (inactive)	68.7 µM (inactive)	> 100 µM (inactive)	> 100 µM (inactive)	78.2 µM (inactive)	> 100 µM (inactive)	62.8 µM (inactive)	49.2 µM (inactive)	> 100 µM (inactive)	> 100 µM (inactive)	45 µM (inactive)	28.8 µM (inactive)	36.1 µM (inactive)	
CN(C(=O)c1ccc2c(c1)sc1c(=O)n(C)c3ccccc3c12)c1ccccc1	> 100 µM (inactive)	> 100 µM (inactive)	> 100 µM (inactive)	> 100 µM (inactive)		> 100 µM (inactive)	> 100 µM (inactive)	> 100 µM (inactive)	> 100 µM (inactive)	50 µM (inactive)	> 100 µM (inactive)	> 100 µM (inactive)	59.7 µM (inactive)	33.7 µM (inactive)	> 100 µM (inactive)	> 100 µM (inactive)	> 100 µM (inactive)		> 100 µM (inactive)
O=P1(C(O)c2ccccc2)N(Cc2ccccc2)[C@@H]2CCCC[C@H]2N1Cc1ccccc1 (stereo partly specified)	64.4 µM (inactive)	19.6 µM (inactive)	24.8 µM (inactive)	23.2 µM (inactive)	25.6 µM (inactive)	31.9 µM (inactive)	21.4 µM (inactive)	14.8 µM (inactive)	20.9 µM (inactive)	31.3 µM (inactive)	30.2 µM (inactive)	28.8 µM (inactive)	20.8 µM (inactive)	30.8 µM (inactive)	15 µM (inactive)	23.6 µM (inactive)	22.3 µM (inactive)		20 µM (inactive)
CC1CCCc2c(-c3ccc(Cl)cc3)nc(N)c(C#N)c21 (stereo unspecified)	58.2 µM (inactive)	20 µM (inactive)	30 µM (inactive)	30.1 µM (inactive)	69.3 µM (inactive)	24 µM (inactive)	27.7 µM (inactive)	23.2 µM (inactive)	41.4 µM (inactive)	39.9 µM (inactive)	33.1 µM (inactive)		42.1 µM (inactive)	38.5 µM (inactive)	30.6 µM (inactive)		22.7 µM (inactive)	13.5 µM (inactive)	
